Test results published in patent publication US20140323304A1, “HERBICIDE COMPOSITION AND WEED CONTROL METHOD” (SDS BIOTECH K.K., priority 2008, published 2014).

Key:
Test in all cases: Pot test on the foliar application (post-emergence treatment of weeds)
Format in all cases: in vivo
Details in all cases: day 10
Amaranthus viridis = test system: Amaranthus viridis
Protocol: (§1) Field soil was packed in a 350 cm^2 plastic pot and seeds of Echinochloa utilis, Digitaria adscendens, Avena fatua, Amaranthus viridis, Chenopodium album and Ipomoea purpurea were sown and covered with soil of about 1 cm thickness. After water absorption and at day 25 after the seeding, sugi-refined oil diluted with a stock solution or water was sprayed uniformly in a spray volume of 200 ml per 1 m^2. The test was performed in a glass greenhouse at a temperature of from 18 to 30° C., and the soil was appropriately moistened from the bottom side.
(§2) Using each of the oily extracts obtained in Preparation Example 2, a flowable (emulsion) formulation was prepared according to Preparation Example 2. The herbicidal activity in the post-emergence stage was evaluated by the method according to Test Example 3 except that the dilution ratio of the spray solution with water was fixed to 4-fold dilution.
(§3) Using the liquid formulation prepared in Formulation Example 3, the herbicidal activity in the post-emergence stage was evaluated by the method according to Test Example 3 except that the test was conducted under a fixed condition that the solution was used as a stock solution without being diluted with water. Also, a formulation using water as a substitute of an oily extract, i.e. a formulation containing sodium bicarbonate only was prepared for comparison, and its herbicidal effect was evaluated as a comparative example. The formulation was sprayed uniformly in a spray volume of 200 ml per 1 m^2.
as §3, with “4,” for “3,”, “treatment of weeds” for “stage”, “calcium borate” for “sodium bicarbonate”
as §3, with “5,” for “3,”, “treatment of weeds” for “stage”, “d-limonene” for “sodium bicarbonate”
(§4) Using these essential oils, a flowable (emulsion) formulation was prepared according to Formulation Example 2. The herbicidal activity in the post-emergence treatment of weeds was evaluated by the method according to Test Example 3 except that the dilution ratio of the spray solution with water was fixed to 2-fold dilution.

Chenopodium album = test system: Chenopodium album
Protocol: as §1, §2, §3
as §3, with “4,” for “3,”, “treatment of weeds” for “stage”, “calcium borate” for “sodium bicarbonate”
as §3, with “5,” for “3,”, “treatment of weeds” for “stage”, “d-limonene” for “sodium bicarbonate”
as §4

Avena fatua = test system: Avena fatua
Protocol: as §1, §2, §3
as §3, with “4,” for “3,”, “treatment of weeds” for “stage”, “calcium borate” for “sodium bicarbonate”
as §3, with “5,” for “3,”, “treatment of weeds” for “stage”, “d-limonene” for “sodium bicarbonate”
as §4

Ipomoea purpurea = test system: Ipomoea purpurea
Protocol: as §1, §2, §3
as §3, with “4,” for “3,”, “treatment of weeds” for “stage”, “calcium borate” for “sodium bicarbonate”
as §3, with “5,” for “3,”, “treatment of weeds” for “stage”, “d-limonene” for “sodium bicarbonate”
as §4

Echinochloa utilis = test system: Echinochloa utilis
Protocol: as §1, §2, §3
as §3, with “4,” for “3,”, “treatment of weeds” for “stage”, “calcium borate” for “sodium bicarbonate”
as §3, with “5,” for “3,”, “treatment of weeds” for “stage”, “d-limonene” for “sodium bicarbonate”
as §4

Digitaria adscendens = test system: Digitaria adscendens
Protocol: as §1, §2, §3
as §3, with “4,” for “3,”, “treatment of weeds” for “stage”, “calcium borate” for “sodium bicarbonate”
as §3, with “5,” for “3,”, “treatment of weeds” for “stage”, “d-limonene” for “sodium bicarbonate”
as §4

[1] = undiluted liquid formulation 200 ml/m^2, per 1 m^2: 20 ml of the essential oil and 12 g of calcium borate
[2] = undiluted liquid formulation 200 ml/m^2, per 1 m^2: 20 ml of the essential oil and 20 ml of d-limonene
[3] = undiluted liquid formulation 200 ml/m^2, per 1 m^2: 20 ml of the essential oil and 12 g of sodium bicarbonate

Compound: calcium borate
- Herbicidal activity Amaranthus viridis (Amaranthus viridis; [1]): 4 (36 to 45%)
- Herbicidal activity Chenopodium album (Chenopodium album; [1]): 4 (36 to 45%)
- Herbicidal activity Avena fatua (Avena fatua; [1]): 5 (46 to 55%)
- Herbicidal activity Ipomoea purpurea (Ipomoea purpurea; [1]): 3 (26 to 35%)
- Herbicidal activity Echinochloa utilis (Echinochloa utilis; [1]): 4 (36 to 45%)
- Herbicidal activity Digitaria adscendens (Digitaria adscendens; [1]): 4 (36 to 45%)

Compound: C=C(C)[C@H]1CC=C(C)CC1 [Comparative Example (d-limonene only), d-limonene]
- Herbicidal activity Amaranthus viridis (Amaranthus viridis; [2]): 6 (56 to 65%)
- Herbicidal activity Chenopodium album (Chenopodium album; [2]): 6 (56 to 65%)
- Herbicidal activity Avena fatua (Avena fatua; [2]): 5 (46 to 55%)
- Herbicidal activity Ipomoea purpurea (Ipomoea purpurea; [2]): 4 (36 to 45%)
- Herbicidal activity Echinochloa utilis (Echinochloa utilis; [2]): 5 (46 to 55%)
- Herbicidal activity Digitaria adscendens (Digitaria adscendens; [2]): 7 (66 to 75%)

Compound: O=C([O-])O.[Na+] [sodium bicarbonate]
- Herbicidal activity Amaranthus viridis (Amaranthus viridis; [3]): 3 (26 to 35%)
- Herbicidal activity Chenopodium album (Chenopodium album; [3]): 4 (36 to 45%)
- Herbicidal activity Avena fatua (Avena fatua; [3]): 4 (36 to 45%)
- Herbicidal activity Ipomoea purpurea (Ipomoea purpurea; [3]): 2 (16 to 25%)
- Herbicidal activity Echinochloa utilis (Echinochloa utilis; [3]): 3 (26 to 35%)
- Herbicidal activity Digitaria adscendens (Digitaria adscendens; [3]): 4 (36 to 45%)
